Assay results taken from ChEMBL document CHEMBL3098080, “Replacement of amide with bioisosteres led to a new series of potent adenosine A2A receptor antagonists” (Bioorg Med Chem Lett, 2014).

Key:
Adenosine receptor A2a [1] = biological target: T1, Adenosine receptor A2a (Homo sapiens, UniProt P29274); test: Inhibition of adenosine A2A receptor (unknown origin) at 100 umol/L relative to control
[2] = Chemical stability in 0.2N HCl in methanol after 24 hrs; type: physicochemical
Adenosine receptor A2a [3] = biological target: T1, Adenosine receptor A2a; test: Displacement of [3H]-ZM241385 from human adenosine A2A receptor expressed in HEK293 cells; type: cell-based

T1 sequence (P29274 whole entry): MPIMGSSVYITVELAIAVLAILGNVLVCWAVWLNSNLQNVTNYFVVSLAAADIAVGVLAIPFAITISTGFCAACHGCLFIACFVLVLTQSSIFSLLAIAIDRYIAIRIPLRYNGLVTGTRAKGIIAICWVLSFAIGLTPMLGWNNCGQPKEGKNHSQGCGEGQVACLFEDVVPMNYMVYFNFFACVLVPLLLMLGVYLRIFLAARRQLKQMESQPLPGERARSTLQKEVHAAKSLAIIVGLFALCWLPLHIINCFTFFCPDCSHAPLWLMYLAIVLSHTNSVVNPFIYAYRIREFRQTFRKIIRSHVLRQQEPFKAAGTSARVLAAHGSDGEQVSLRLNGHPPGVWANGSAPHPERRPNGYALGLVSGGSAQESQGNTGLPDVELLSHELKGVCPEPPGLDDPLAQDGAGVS

Structure (SMILES): Cc1cc(C)n(-c2nc(NCC(F)(F)F)cc(N3CCc4ccccc4C3)n2)n1
- inhibition (Adenosine receptor A2a [1]): 64%

Structure (SMILES): COC[C@H]1CCCN1c1cc(NCC(F)(F)F)nc(-n2nc(C)cc2C)n1
- inhibition (Adenosine receptor A2a [1]): 115%
- Stability [2]: Stable
- Ki (Adenosine receptor A2a [3]): 24 nM

Structure (SMILES): COC[C@H]1CCCN1c1cc(Nc2cnccn2)nc(-n2nc(C)cc2C)n1
- inhibition (Adenosine receptor A2a [1]): 124%
- Stability [2]: Stable
- Ki (Adenosine receptor A2a [3]): 69 nM

Structure (SMILES): Cc1cc(C)n(-c2nc(Nc3ncccn3)cc(N3CCc4ccccc4C3)n2)n1
- inhibition (Adenosine receptor A2a [1]): -5%

Structure (SMILES): Cc1cc(C)n(-c2nc(Nc3cnccn3)cc(N3CCc4ccccc4C3)n2)n1
- inhibition (Adenosine receptor A2a [1]): 121%
- Ki (Adenosine receptor A2a [3]): 1.1 nM

Structure (SMILES): COC[C@H]1CCCN1c1cc(Nc2ncccn2)nc(-n2nc(C)cc2C)n1
- inhibition (Adenosine receptor A2a [1]): 71%

Structure (SMILES): COCCOc1ccc(N2CCN(CCn3ncc4c3nc(N)n3nc(-c5ccco5)nc43)CC2)cc1 [PRELADENANT]
- inhibition (Adenosine receptor A2a [1]): 120%
- Ki (Adenosine receptor A2a [3]): 1 nM

Structure (SMILES): COC[C@H]1CCCN1c1cc(NC(C)=O)nc(-n2nc(C)cc2C)n1
- inhibition (Adenosine receptor A2a [1]): 123%
- Ki (Adenosine receptor A2a [3]): 15 nM

Structure (SMILES): COC[C@H]1CCCN1c1cc(Nc2nccs2)nc(-n2nc(C)cc2C)n1
- inhibition (Adenosine receptor A2a [1]): 123%
- Stability [2]: Stable
- Ki (Adenosine receptor A2a [3]): 9.5 nM

Structure (SMILES): COC[C@H]1CCCN1c1cc(Nc2ccccn2)nc(-n2nc(C)cc2C)n1
- inhibition (Adenosine receptor A2a [1]): 124%
- Stability [2]: Stable
- Ki (Adenosine receptor A2a [3]): 45 nM

Structure (SMILES): Cc1cc(C)n(-c2nc(Nc3nccs3)cc(-n3cccn3)n2)n1
- inhibition (Adenosine receptor A2a [1]): 58%

Structure (SMILES): Cc1cc(C)n(-c2nc(Nc3cnccn3)cc(-n3cccn3)n2)n1
- inhibition (Adenosine receptor A2a [1]): 117%
- Ki (Adenosine receptor A2a [3]): 43 nM

Structure (SMILES): Cc1cc(C)n(-c2nc(Nc3ccccn3)cc(-n3cccn3)n2)n1
- inhibition (Adenosine receptor A2a [1]): 117%
- Ki (Adenosine receptor A2a [3]): 9.2 nM

Structure (SMILES): Cc1cc(C)n(-c2nc(Nc3ncccn3)cc(-n3cccn3)n2)n1
- inhibition (Adenosine receptor A2a [1]): 23%

Structure (SMILES): Cc1cc(C)n(-c2nc(Nc3ccccn3)cc(N3CCc4ccccc4C3)n2)n1
- inhibition (Adenosine receptor A2a [1]): 95%
- Ki (Adenosine receptor A2a [3]): 65 nM

Structure (SMILES): Cc1cc(C)n(-c2nc(Nc3nccs3)cc(N3CCc4ccccc4C3)n2)n1
- inhibition (Adenosine receptor A2a [1]): 117%
- Ki (Adenosine receptor A2a [3]): 66 nM

Structure (SMILES): Cc1cc(C)n(-c2nc(NCC(F)(F)F)cc(-n3cccn3)n2)n1
- inhibition (Adenosine receptor A2a [1]): 117%
- Ki (Adenosine receptor A2a [3]): 52 nM
